Reference: publication PMC12750388, “Coumarin-1,2,3-Triazole Conjugates as Molecular Scaffolds for the Selective Induction of ROS-Driven Apoptosis in Cancer Cells in the Development of Pyruvate Kinase M2 Inhibitors” (ACS Omega, 2025)

How the values were obtained:
HCT116 = assay: MTT cell viability assay, HCT116; assay type: cell-based, human
4T1 = assay: MTT cell viability assay, 4T1; assay type: cell-based, murine
SCC-9 cells [1] = assay: Cell cycle and sub-G1 analysis by flow cytometry; assay type: cell-based, human
Protocol: The interference of 7f in the cell cycle (G1, […], and G2/M) and DNA fragmentation (sub-G1) was assessed by flow cytometry analysis using a Guava Muse Cell Analyzer (Cytek Biosciences, Fremont, CA, USA). DNA staining was conducted using a pH 7.6 propidium iodide buffer composed of 3.4 mM Trizma Hydrochloride (Sigma-Aldrich Co., St. Louis, MO, USA), 10 mM NaCl (Sigma-Aldrich Co., St. Louis, MO, USA), 0.1% (v/v) NP40 (Sigma-Aldrich Co., St. Louis, MO, USA), 700 U/L RNase, and 0.075 mM propidium iodide (Sigma-Aldrich Co., St. Louis, MO, USA). An amount of 1 × 10^5 and 5 × 10^5 SCC-9 cells were seeded in six-well plates for the treatment with the negative control (DMSO) and 7f, respectively. […] Cells were then trypsinized and stained with propidium iodide buffer. DNA content was analyzed by collecting 10,000 events in the aforementioned cytometer. Data were analyzed using Flowing Software (Turku Biosciences, Turku, Finland).

B16–F10 = assay: MTT cell viability assay, B16–F10; assay type: cell-based, murine
SCC-9 cells [2] = assay: MTT cell viability with N-acetyl-L-cysteine pretreatment; assay type: cell-based, human; details: SCC-9, 48 h; 7f 1 × IC50, menadione 20 μM
Protocol: The production of reactive oxygen species (ROS) was assessed by the detection of hydrogen peroxide (H2O2) using the ROS-Glo H2O2 assay kit (Promega Corporation, Madison, WI, USA; G8820). […] A plate with wells without cells was used as a control. Cells and cell-free wells remained in treatment at times of interest, and 2 h before completion of the times, well volumes were removed to reduce to 40 μL per well. Then the positive control of menadione (Sigma-Aldrich Co., St. Louis, MO, USA), a polycyclic aromatic ketone based on 1,4-naphthoquinone, was used to treat its respective well, and H2O2 substrate from the kit was added for all treatments, followed by the incubation of the plate for the remaining 2 h. Then the detection solution was added, and the plates remained at room temperature for 20 min, following the reading in the TD 20/20 luminometer (Turner Designs, Sunnyvale, CA, USA). The reading of bioluminescence detected is indicated as arbitrary units (a.u.). Additionally, the cell viability was assessed through pretreatment of cells with 10 mM N-acetyl-L-cysteine (NAC) (Sigma-Aldrich Co., St. Louis, MO, USA) for 2 h. […] At the end of the time, the MTT cell viability assay was performed.

SCC-25 = assay: MTT cell viability assay, SCC-25; assay type: cell-based, human
Protocol: (§1) The viability of SCC cell lines and primary human fibroblast cells was evaluated using the MTT assay to determine half maximal inhibitory concentration (IC50). Briefly, cells were grown in triplicate in 96-well plates (5 × 10^3 cells/well) until confluence. Then the medium was removed, fresh medium was added, and the cells were returned to the incubator in the presence of different compounds. DMSO at the same concentrations was used as a 100% cell viability control. After 48 h, cells were incubated with 5 mg/mL MTT reagent (3-(4,5-dimethyl-2-thiazolyl)-2,5-diphenyl-2-H-tetrazolium bromide) (Sigma-Aldrich Co., St. Louis, MO, USA) for 3.5 h. After that, formazan crystals were dissolved in MTT solvent solution (DMSO/methanol 1:1 v/v), and the absorbance at 560 nm was evaluated using an EPOCH microplate spectrophotometer (BioTek Instruments, Winooski, VT, USA) with the background absorbance at 670 nm subtracted. Each of the 12 compounds (7a–7l) was tested at six different concentrations, ranging from 6.25 to 200 μM in cancer and normal cell lines. Control (carboplatin) was tested at six different concentrations ranging from 25 μM to 800 μM in cancer cells and from 50 μM to 1600 μM in normal cells.
(§2) Half-maximal inhibitory concentration (IC50) values were obtained from the MTT assay of at least three independent replicates through nonlinear regression analysis using GraphPad Prism 5.0 software (Intuitive Software for Science, San Diego, CA, USA). Data were presented as means ± standard deviation (SD). A log dose–response curve (inhibitor vs response) using the least-squares method was used to determine the IC50 and SD from the data. The selectivity index (SI) was calculated as the ratio between the IC50 in normal cells and the IC50 in cancer cells, obtained by dividing the IC50 of normal cells by the IC50 of cancer cells.

SCC-9 cells [3] = assay: Cytotoxicity assay (cell death inhibition) with z-VAD-fmk and necrostatin-1; assay type: cell-based; details: SCC-9, 2 × IC50 7f, 24 h
Protocol: This investigation consists of pretreating cells with different death inhibitors. For this assay, day SCC-9 cells were seeded in a 96-well plate, and the next day, they were pretreated for 2 h with 20 μM z-VAD-fmk (ZVAD) (Promega Corporation, Madison, WI, USA) and 20 μM necrostatin-1 (Nec-1) (Sigma-Aldrich Co., St. Louis, MO, USA) alone or in combination. […] The plate was incubated for 24 h, and the result was determined through an MTT cell viability assay. The absorbance was measured with an EPOCH (BioTek Instruments, Winooski, VT, USA) spectrometer at 560 nm.

SCC-9 cell line = assay: MTT cell viability assay, SCC-9; assay type: cell-based, human
Protocol: as §1, §2

[4] = versus human gingival fibroblast

## O=C1C=C(OCc2cn(CCCOc3cc(=O)oc4ccccc34)nn2)C(=O)c2ccccc21 [Compound 7f, 2-((1-(3-((2-Oxo-2H-chromen-4-yl)oxy)propyl)-1H-1,2,3-triazol-4-yl)methoxy)naphthalene-1,4-dione]
HCT116; HCT-116, MTT, human colon carcinoma
  IC50: 6.72 µM
HCT116; [4]
  SI HCT116: 3.38
4T1; Mus musculus, 4T1, MTT, murine breast cancer
  IC50: 7.63 µM
4T1; [4]
  SI 4T1: 2.98
SCC-9 cells [1]; SCC-9, 2 × IC50, 24 h
  S-phase arrest versus control (DMSO): approximately twice as frequent as in the control group
SCC-9 cells [1]; SCC-9, 2 × IC50, 24 h (DMSO 12.33%)
  cell cycle S population: 22.99%
SCC-9 cells [1]; SCC-9, 2 × IC50, 24 h (DMSO 22.59%)
  cell cycle G2/M population: 14.45%
SCC-9 cells [1]; SCC-9, 2 × IC50, 24 h (DMSO 64.99%)
  cell cycle G1 population: 62.31%
SCC-9 cells [1]; SCC-9, 2 × IC50, 48 h (DMSO 5.04%)
  Sub-G1 population (DNA fragmentation): 29.84%
SCC-9 cells [1]; SCC-9, 48 h, versus DMSO
  increase in the sub-G1 population: 5 fold
B16–F10; Mus musculus, B16-F10, MTT, murine melanoma
  IC50: 4.93 µM
B16–F10; [4]
  SI B16–F10: 4.61
SCC-9 cells [2]
  cell viability in the presence of 10 mM N-acetyl-L-cysteine (NAC): NAC protected cell death
SCC-25; Homo sapiens, SCC-25, MTT, 48 h
  IC50: 11.1 µM
SCC-25; IC50 human gingival fibroblast / IC50 SCC-25
  SI SCC-25: 2.05
SCC-9 cells [3]
  cell death after pretreatment with 20 μM z-VAD-fmk (ZVAD): significantly attenuated
  cytotoxic effect after pretreatment with 20 μM necrostatin-1 (Nec-1), alone or with ZVAD: failed to reverse the cytotoxic effect
SCC-9 cell line; Homo sapiens, SCC-9, MTT, 48 h
  IC50: 12.3 µM
SCC-9 cell line; IC50 human gingival fibroblast / IC50 SCC-9
  SI SCC-9: 1.85
